What all share (type): in vivo, rat
For assay [1], the system named is IR rats. Description: Long-term (4-week) oral VPA treatment of IR rats, EF and FS. Particulars: oral VPA 250 mg/kg twice daily for 4 weeks, versus IR control animals.
Method: In addition, long-term (4-week) treatment of VPA was performed to IR rats.
A further assay has as its system Foxm1. As to the kind of experiment: RNA-seq of whole hearts one day after IR. An excerpt:
Recent studies indicate that neonatal CMs proliferate much more potently than adult CMs and Foxm1 appears to be a key factor in regulating neonatal CM proliferation by controlling Igf1 and cell cycle genes (Ref. 44; incorporated by reference in its entirety). […] These genes are mostly proliferation related genes. Other potential targets include anti-oxidative, pro-fibrotic, and CM structural genes. Foxm1 has also been reported to work with YAP1 to activate proliferation genes (Ref. 46; incorporated by reference in its entirety).

Assay [2] has as its system IR rats. Description: Plasma biochemical assay of LDH and creatine kinase (MI injury biomarkers). The conditions noted are these: 24 h after VPA treatment.
Method: To determine the possible protective effect of VPA after MI, MI rats were generated by ischemia reperfusion and VPA was administrated to the animals. […] Intra-peritoneal injection of 250 mg/kg VPA was conducted immediately after and 12 h after coronary ligation. Heart functional assays, MI assessment, and physiological assays were performed 24 h after VPA administration.
Assay [3] relates to MI rats generated by ischemia reperfusion. Description: Myocardial infarct size by triphenyltetrazolium chloride (TTC) staining. Particulars: two shots of VPA within 24 h of IR injury; versus saline controls. As for the experimental part:
Myocardial infarct size was determined by triphenyltetrazolium chloride (TTC) staining. The hearts were frozen rapidly and sliced into five 2 mm transverse sections. The sections were incubated at 37° C. with 1% TTC in phosphate buffer (pH 7.4) for 10 min, fixed in 10% formaldehyde solution, photographed and calculated using ImageJ software. The infarct size was expressed as a percentage of infarct volume versus left ventricle volume.

Assay [4] has the same test system. Description: Echocardiography of heart function (EF, FS) after ischemia reperfusion MI. As for the experimental part:
24 h post coronary ligation, a MI size of 33.59±3.54% of the left ventricle was induced in rats. […] Left ventricular internal diameter end diastole (LVIDd) and end systole (LVIDs) were measured perpendicularly to the long axis of the ventricle. EF and FS were calculated according to LVIDd and LVIDs.

Setting [5] is: IR rats, 250 mg/kg VPA intra-peritoneal immediately after and 12 h after coronary ligation, echocardiography at 24 h.

The structures appear in SMILES notation.

These results are taken from patent US20180325850A1 (The Regents of the University of Michigan, priority 2017, published 2018).

With `CCCC(CCC)C(=O)O` [VPA, valproic acid], the “effect on ventricular remodeling and pumping function (EF, FS)” value in the assay on IR rats [1] was “protected the MI hearts from ventricular remodeling and weakening of the pumping function”. Besides, in the assay on Foxm1, the “Foxm1 expression, IR+VPA group versus no IR group” value amounted to 8 fold. Further, in the assay on IR rats [2], the “plasma LDH release” value amounted to 63.07±23.83 U/L and the “plasma creatine kinase (CK) release” value is 158.31±43.53 U/L. Moreover, in assay [3], the “reduction of infarct size” value is listed as “around 45%”. In assay [4] (setting [5]), the “fractional shortening (FS)” value was found to be 33.21±4.46% and the “left ventricle ejection fraction (EF)” value is 60.60±6.18%. In addition, in assay [4] (VPA treatment within 12 h of IR injury, from EF and FS), the “rescue of the functional loss caused by acute IR injury” value is recorded as “roughly 50%”.
